What follows are compounds tested against T1, Recombinant human BACE-1 (Homo sapiens, UniProt P56817) (assay: Assay of β-secretase-inhibiting activity). Conditions: Recombinant human BACE-1 7.4 nM, substrate peptide 18 nM, pH 5.0, 30° C., 3 hours; Table 140; read-out: IC50.
T1 construct: purchased R&D Systems
Type: biochemical
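Also: substrate is a peptide carrying biotin and europium cryptate, after the enzyme reaction, Streptavidin-XL665 is added and incubated 1 h at 30 °C before fluorescence reading.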

T1 sequence (P56817 46-501): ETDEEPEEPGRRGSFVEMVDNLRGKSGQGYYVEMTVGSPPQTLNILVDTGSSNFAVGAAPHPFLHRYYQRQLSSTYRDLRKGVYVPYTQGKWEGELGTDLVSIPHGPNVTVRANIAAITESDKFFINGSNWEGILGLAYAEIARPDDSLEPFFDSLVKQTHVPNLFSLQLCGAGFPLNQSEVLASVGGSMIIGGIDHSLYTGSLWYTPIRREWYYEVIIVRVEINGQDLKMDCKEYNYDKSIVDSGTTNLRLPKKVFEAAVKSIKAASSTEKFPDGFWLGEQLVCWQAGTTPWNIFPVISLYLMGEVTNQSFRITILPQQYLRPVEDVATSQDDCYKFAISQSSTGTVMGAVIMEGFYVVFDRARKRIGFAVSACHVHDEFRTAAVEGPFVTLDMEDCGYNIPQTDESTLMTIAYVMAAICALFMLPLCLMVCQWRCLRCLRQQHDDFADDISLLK

Row | SMILES | IC50
1 | Cc1cnc(C(=O)Nc2ccnc([C@]3(C)CCSC(N)=N3)c2)cn1 [Compound 551] | 20 nM
2 | C[C@@]1(c2cc(NC(=O)c3ccc(OCC(N)=O)cn3)ccc2F)CCSC(N)=N1 [Compound 559] | 420 nM
3 | Cc1cnc(C(=O)Nc2cccc([C@]3(C)CCSC(N)=N3)c2)cn1 [Compound 563] | 20 nM
4 | C[C@@]1(c2cc(NC(=O)c3ccc(OCC#CCN)cn3)ccc2F)CCSC(N)=N1 [Compound 566] | 180 nM
5 | Cc1cnn(-c2cnc(C(=O)Nc3ccc(F)c([C@]4(C)CCSC(N)=N4)c3)cn2)c1 [Compound 577] | 30 nM
6 | Cc1cc(C)n(-c2cnc(C(=O)Nc3ccc(F)c([C@]4(C)CCSC(N)=N4)c3)cn2)n1 [Compound 579] | 140 nM
7 | C[C@@]1(c2cc(NC(=O)c3cnc(-n4ccc(C(F)(F)F)n4)cn3)ccc2F)CCSC(N)=N1 [Compound 580] | 130 nM
8 | Cc1cncc(C(=O)Nc2ccc(F)c([C@]3(C)CCSC(N)=N3)c2)n1 [Compound 585] | 60 nM
9 | COc1cnc(C(=O)Nc2cccc([C@]3(C)CCSC(N)=N3)n2)cn1 [Compound 589] | 60 nM
10 | Cc1cnc(C(=O)Nc2cc([C@]3(C)CCSC(N)=N3)ccn2)cn1 [Compound 593] | 280 nM
11 | Cc1cnc(C(=O)Nc2cccc([C@]3(C)CCSC(N)=N3)n2)cn1 [Compound 594] | 170 nM
12 | C[C@@]1(c2ccnc(NC(=O)c3ccc(Cl)cn3)c2)CCSC(N)=N1 [Compound 598] | 30 nM
13 | C[C@@]1(c2cccc(NC(=O)c3ccc(Cl)cn3)n2)CCSC(N)=N1 [Compound 599] | 30 nM
14 | CC1(C)C[C@@](C)(c2cc(NC(=O)c3coc(Cl)n3)ccc2F)N=C(N)S1 [Compound 645] | 200 nM

Second part, the compound after the results:

Row | IC50 | SMILES
15 | 100 nM | COCCOc1cnc(C(=O)Nc2cc([C@]3(C)CCSC(N)=N3)ccn2)cn1 [Compound 591]
16 | 70 nM | C[C@@]1(c2cncc(NC(=O)c3cnc(Cl)cn3)c2)CCSC(N)=N1 [Compound 597]

Same assay, conditions: Recombinant human BACE-1 7.4 nM, substrate peptide 18 nM, pH 5.0, 30° C., 3 hours; Table 141; read-out: IC50

Row | IC50 | SMILES
17 | 10 nM | CC1(C)C[C@@](C)(c2cc(NC(=O)c3ncccc3F)ccn2)N=C(N)S1 [Compound 655]
18 | 110 nM | C[C@]1(c2cc(NC(=O)c3ncccc3F)ccc2F)N=C(N)SCC1(F)F [Compound 660]
19 | 170 nM | Cc1cnc(C(=O)Nc2ccc(F)c([C@@]3(C)N=C(N)SCC3(F)F)c2)cn1 [Compound 662]
20 | 20 nM | Cc1nc(C(=O)Nc2ccc(F)c([C@@]3(C)N=C(N)SCC3(F)F)c2)co1 [Compound 664]
21 | 870 nM | CCCCc1ccc(C(=O)Nc2ccc(F)c([C@@]3(C)N=C(N)SCC3(F)F)c2)nc1 [Compound 665]
22 | 20 nM | COc1nc(C(=O)Nc2ccc(F)c([C@]3(C)CCSC(N)=N3)c2)co1 [Compound 667]

Row | SMILES | IC50
23 | Cc1cn2cc(C(=O)Nc3ccc(F)c([C@]4(C)CCSC(N)=N4)c3)ncc2n1 [Compound 652] | 60 nM

Same assay, conditions: Recombinant human BACE-1 7.4 nM, substrate peptide 18 nM, pH 5.0, 30° C., 3 hours; time-resolved fluorescence ratio 665/620; read-out: IC50 values (50% inhibitory concentration against the enzymatic activity)

Row | SMILES | IC50
24 | C[C@@]1(c2cc(NC(=O)c3ccc(Cl)cn3)ccn2)CCSC(N)=N1 [Compound 552] | ≤ 1000 nM
25 | Cn1ccnc1C(=O)Nc1ccc(F)c([C@]2(C)CCSC(N)=N2)c1 [Compound 553] | ≤ 1000 nM
26 | Cc1nc(C(=O)Nc2ccc(F)c([C@]3(C)CCSC(N)=N3)c2)c(C)o1 [Compound 554] | ≤ 1000 nM
27 | C[C@@]1(c2cc(NC(=O)c3ccc(OCC#CCO)cn3)ccc2F)CCSC(N)=N1 [Compound 567] | ≤ 1000 nM
28 | CNCC#CCOc1ccc(C(=O)Nc2ccc(F)c([C@]3(C)CCSC(N)=N3)c2)nc1 [Compound 569] | ≤ 1000 nM
29 | CN(C)CC#CCOc1ccc(C(=O)Nc2ccc(F)c([C@]3(C)CCSC(N)=N3)c2)nc1 [Compound 570] | ≤ 1000 nM
30 | COCC#CCOc1ccc(C(=O)Nc2ccc(F)c([C@]3(C)CCSC(N)=N3)c2)nc1 [Compound 571] | ≤ 1000 nM
31 | C[C@@]1(c2cncc(NC(=O)c3ncc(Cl)cc3Cl)c2)CCSC(N)=N1 [Compound 572] | ≤ 1000 nM
32 | C[C@@]1(c2cc(NC(=O)c3ccc(OCC#CCCl)cn3)ccc2F)CCSC(N)=N1 [Compound 573] | ≤ 1000 nM
33 | C[C@@]1(c2cncc(NC(=O)c3ncc(C(F)(F)F)cc3Cl)c2)CCSC(N)=N1 [Compound 574] | ≤ 1000 nM
34 | Cc1cn(-c2cnc(C(=O)Nc3ccc(F)c([C@]4(C)CCSC(N)=N4)c3)cn2)cn1 [Compound 578] | ≤ 1000 nM
35 | C[C@@]1(c2cncc(NC(=O)c3ccc(Cl)cn3)n2)CCSC(N)=N1 [Compound 581] | ≤ 1000 nM
36 | Cc1nc(C(=O)Nc2cnc(Cl)c([C@]3(C)CCSC(N)=N3)c2)co1 [Compound 584] | ≤ 1000 nM
37 | Cc1nc(C(=O)Nc2cnc(Cl)c([C@]3(C)CCSC(N)=N3)c2)c(C)o1 [Compound 586] | ≤ 1000 nM
38 | C[C@@]1(c2cc(NC(=O)c3cccc(F)n3)ccc2F)CCSC(N)=N1 [Compound 587] | ≤ 1000 nM
39 | CC#CCOc1cnc(C(=O)Nc2cc([C@]3(C)CCSC(N)=N3)ccn2)cn1 [Compound 596] | ≤ 1000 nM
40 | COc1cnc(C(=O)Nc2ccc(F)c([C@]3(C)CCSC(N)=N3)c2)c(C)c1 [Compound 602] | ≤ 1000 nM
41 | COc1cnc(C(=O)Nc2ccc(F)c([C@]3(C)CCSC(N)=N3)c2)c(N)n1 [Compound 603] | ≤ 1000 nM
42 | Cc1nc(C(=O)Nc2ccc(F)c([C@]3(C)CC(C)(C)SC(N)=N3)c2)co1 [Compound 609] | ≤ 1000 nM
43 | Cc1nc(C(=O)Nc2ccnc([C@]3(C)CCSC(N)=N3)c2)co1 [Compound 612] | ≤ 1000 nM
44 | C[C@@]1(c2cc(NC(=O)c3ncccc3F)ccn2)CCSC(N)=N1 [Compound 613] | ≤ 1000 nM
45 | CC1(C)C[C@@](C)(c2cc(NC(=O)c3ncc(C(F)(F)F)cc3Cl)ccc2F)N=C(N)S1 [Compound 644] | ≤ 1000 nM
46 | C[C@@]1(c2cncc(NC(=O)c3ncc(C(F)(F)F)cc3F)c2)CCSC(N)=N1 [Compound 646] | ≤ 1000 nM
47 | Cc1cnc(C(=O)Nc2ccc(F)c([C@@]3(C)N=C(N)SCC3(C)C)c2)cn1 [Compound 649] | ≤ 1000 nM
48 | C[C@@]1(c2cc(NC(=O)c3cn4cc(C(F)(F)F)nc4cn3)ccc2F)CCSC(N)=N1 [Compound 651] | ≤ 1000 nM
49 | CC1(C)C[C@@](C)(c2cc(NC(=O)c3ncc(C(F)(F)F)cc3Cl)ccn2)N=C(N)S1 [Compound 656] | ≤ 1000 nM
50 | CC1(C)CSC(N)=N[C@]1(C)c1cc(NC(=O)c2ncccc2F)ccc1F [Compound 661] | ≤ 1000 nM
51 | C[C@@]1(c2cc(NC(=O)c3cnc4ccccc4n3)ccc2F)CCSC(N)=N1 [Compound 666] | ≤ 1000 nM

The next lines start with the values.

Row | IC50 | SMILES
52 | ≤ 1000 nM | COCCOc1cnc(C(=O)Nc2ccnc([C@]3(C)CCSC(N)=N3)c2)cn1 [Compound 549]
53 | ≤ 1000 nM | Cc1cnc(C(=O)Nc2cncc([C@]3(C)CCSC(N)=N3)c2)cn1 [Compound 550]
54 | ≤ 1000 nM | COc1cnc(C(=O)Nc2cncc([C@]3(C)CCSC(N)=N3)c2)c(N)n1 [Compound 555]
55 | ≤ 1000 nM | C#CCOc1cnc(C(=O)Nc2cncc([C@]3(C)CCSC(N)=N3)c2)cn1 [Compound 556]
56 | ≤ 1000 nM | C[C@@]1(c2cncc(NC(=O)c3cnc(OCCF)cn3)c2)CCSC(N)=N1 [Compound 557]
57 | ≤ 1000 nM | COc1cnc(C(=O)Nc2cncc([C@]3(C)CC(C)(C)SC(N)=N3)c2)c(N)n1 [Compound 558]
58 | ≤ 1000 nM | COc1cnc(C(=O)Nc2cncc([C@]3(C)CC(C)(C)SC(N)=N3)c2)cn1 [Compound 560]
59 | ≤ 1000 nM | C#CCOc1cnc(C(=O)Nc2cncc([C@]3(C)CC(C)(C)SC(N)=N3)c2)cn1 [Compound 561]
60 | ≤ 1000 nM | COCCOc1cnc(C(=O)Nc2cncc([C@]3(C)CC(C)(C)SC(N)=N3)c2)cn1 [Compound 562]
61 | ≤ 1000 nM | COc1cnc(C(=O)Nc2cncc([C@]3(C)CCSC(N)=N3)c2)c(C)c1 [Compound 564]
62 | ≤ 1000 nM | C[C@@]1(c2cccc(NC(=O)c3cnc(OCCF)cn3)c2)CCSC(N)=N1 [Compound 565]
63 | ≤ 1000 nM | CC1(C)C[C@@](C)(c2cncc(NC(=O)c3cnc(OCCF)cn3)c2)N=C(N)S1 [Compound 568]
64 | ≤ 1000 nM | CC1(C)C[C@@](C)(c2cncc(NC(=O)c3ncc(C(F)(F)F)cc3Cl)c2)N=C(N)S1 [Compound 575]
65 | ≤ 1000 nM | COc1cnc(C(=O)Nc2cnc(Cl)c([C@]3(C)CCSC(N)=N3)c2)cn1 [Compound 582]
66 | ≤ 1000 nM | COCCOc1cnc(C(=O)Nc2cnc(Cl)c([C@]3(C)CCSC(N)=N3)c2)cn1 [Compound 583]
67 | ≤ 1000 nM | COCCOc1cnc(C(=O)Nc2cncc([C@]3(C)CCSC(N)=N3)c2)cn1 [Compound 590]
68 | ≤ 1000 nM | COCCOc1cnc(C(=O)Nc2cccc([C@]3(C)CCSC(N)=N3)n2)cn1 [Compound 592]
69 | ≤ 1000 nM | CC#CCOc1cnc(C(=O)Nc2cncc([C@]3(C)CCSC(N)=N3)c2)cn1 [Compound 595]
70 | ≤ 1000 nM | COc1cnc(C(=O)Nc2ccc(F)c([C@]3(C)CC(C)(C)SC(N)=N3)c2)cn1 [Compound 600]
71 | ≤ 1000 nM | COCCOc1cnc(C(=O)Nc2ccc(F)c([C@]3(C)CC(C)(C)SC(N)=N3)c2)cn1 [Compound 601]
72 | ≤ 1000 nM | CC1(C)C[C@@](C)(c2cc(NC(=O)c3cnc(OCCF)cn3)ccc2F)N=C(N)S1 [Compound 605]
73 | ≤ 1000 nM | Cc1cnc(C(=O)Nc2ccc(F)c([C@]3(C)CC(C)(C)SC(N)=N3)c2)cn1 [Compound 606]
74 | ≤ 1000 nM | COc1cnc(C(=O)Nc2ccnc([C@]3(C)CC(C)(C)SC(N)=N3)c2)cn1 [Compound 637]
75 | ≤ 1000 nM | COc1cnc(C(=O)Nc2ccc(F)c([C@@]3(C)N=C(N)SCC3(C)C)c2)cn1 [Compound 647]
76 | ≤ 1000 nM | Cc1cnc(C(=O)Nc2ccnc([C@]3(C)CC(C)(C)SC(N)=N3)c2)cn1 [Compound 653]
77 | ≤ 1000 nM | C#CCOc1cnc(C(=O)Nc2ccnc([C@]3(C)CC(C)(C)SC(N)=N3)c2)cn1 [Compound 657]
78 | ≤ 1000 nM | CC1(C)C[C@@](C)(c2cc(NC(=O)c3cnc(OCCF)cn3)ccn2)N=C(N)S1 [Compound 658]
79 | ≤ 1000 nM | C#CCOc1cnc(C(=O)Nc2ccnc([C@]3(C)CCSC(N)=N3)c2)cn1 [Compound 659]

— patent publication US20100075957A1, “AMINODIHYDROTHIAZINE DERIVATIVES SUBSTITUTED WITH A CYCLIC GROUP” (SHIONOGI & CO., LTD., priority 2007, published 2010)
